Measurements reported in patent US10782295B2, “Cysteine-reactive ligand discovery in proteomes” (THE SCRIPPS RESEARCH INSTITUTE, priority 2013, dated 2020).

Columns and labels:
REEP5 = molecular target: T1, REEP5 (Homo sapiens, UniProt Q00765); assay: competitive isoTOP-ABPP, MDA-MB-231 soluble proteome; type: binding; conditions: 100 μM LDE, 60 min; peptide NC*MTDLLAK
T1 construct: directly in native proteomes; endogenous in cells; host or cells: MDA-MB-231

PEF1 = molecular target: T2, PEF1 (Homo sapiens, UniProt Q9UBV8); assay: as above; type: binding; conditions: 100 μM LDE, 60 min; peptide QALVNC*NWSSFNDETCLMMINMFDK
T2 construct: directly in native proteomes; endogenous in cells; host or cells: MDA-MB-231
T2 sequence (Q9UBV8 1-284): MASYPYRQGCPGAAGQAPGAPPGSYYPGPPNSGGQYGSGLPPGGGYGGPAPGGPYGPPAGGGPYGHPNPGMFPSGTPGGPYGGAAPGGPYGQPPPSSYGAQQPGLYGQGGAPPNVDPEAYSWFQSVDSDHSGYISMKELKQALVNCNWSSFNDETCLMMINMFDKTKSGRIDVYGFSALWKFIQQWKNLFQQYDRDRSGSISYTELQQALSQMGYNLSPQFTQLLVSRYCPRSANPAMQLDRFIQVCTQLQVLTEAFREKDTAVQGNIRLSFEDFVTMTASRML

AKT1/2/3 = assay: competitive isoTOP-ABPP, concentration-dependent HNE; type: binding, human; conditions: MDA-MB-231 proteome, read-out: IC50 for inhibition of cysteine (C311) in AKT1/2/3
Method: The MDA-MB-231 cell proteome was treated with varying concentrations of HNE (5, 10, 50, 100 and 500 μM) for 60 min and then the IA-labeling profile of each reaction was quantitatively compared to a DMSO-control sample by isoTOP-ABPP.
By combining the R values at all 5 HNE concentrations, we could extrapolate IC50 values for […] of IA probe-labeling for ˜700 of the 1100 cysteines (FIG. 3a).
HNE was purchased from EMD biosciences, 15d-PGJ2 was purchased from Cayman Chemicals and 2-HD was purchased from Santa Cruz Biotechnology. Proteome samples were diluted to a 4 mg protein/mL solution in PBS. […]
IA-probe labeled peptides were identified by SEQUEST2 and DTASelect3, and the quantification of heavy/light ratios (isoTOP-ABPP ratios, R) was performed by an in-house software (CIMAGE) as previously described. The software was advanced to be able to detect and quantify cases where near complete […] blockade of IA-probe labeling was achieved (e.g., very small or no light peak) and assign an empirical ratio cut-off of 15 to each of such cases. […] In the case of probe-modified peptides that were sequenced in one, but not the other runs, a featured algorithm of CIMAGE was utilized to identify the corresponding peak pairs in the runs without the SEQUEST identification and obtain quantification as previously described. […]

T1 sequence (Q00765 whole entry): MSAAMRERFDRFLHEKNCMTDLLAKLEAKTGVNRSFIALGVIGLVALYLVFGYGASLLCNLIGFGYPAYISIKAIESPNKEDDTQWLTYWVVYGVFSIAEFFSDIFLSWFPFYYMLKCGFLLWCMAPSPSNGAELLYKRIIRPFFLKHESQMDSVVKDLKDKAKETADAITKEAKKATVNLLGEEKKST

CCCCCCCCCCCCC/C=C/C=O [2-HD, 2-trans-hexadecenal]
R value (isoTOP-ABPP ratio heavy/light) for IA-labeled cysteine of REEP5 (REEP5): 1.18
R value (isoTOP-ABPP ratio heavy/light) for IA-labeled cysteine of PEF1 (PEF1): 1.25

CCCCCC(O)/C=C/C=O (stereo not shown) [4-HNE, 4-Hydroxynonenal]
IC50 (AKT1/2/3): 60 µM
R value (isoTOP-ABPP ratio heavy/light) for IA-labeled cysteine of REEP5 (REEP5): 7.08
R value (isoTOP-ABPP ratio heavy/light) for IA-labeled cysteine of PEF1 (PEF1): 5.14

CCCCC/C=C/C=C1/C(=O)C=C[C@@H]1C/C=C\CCCC(=O)O [PGJ2, 15-deoxy-Δ12,14-prostaglandin J2]
R value (isoTOP-ABPP ratio heavy/light) for IA-labeled cysteine of REEP5 (REEP5): 7.38
R value (isoTOP-ABPP ratio heavy/light) for IA-labeled cysteine of PEF1 (PEF1): 2.9
